Source: patent US20230405028A1 (priority 2020, published 2023)
Like-named read-outs stand apart in the source and are kept apart here.

What was measured:
BDNF = BDNF in A-172 cells; type: cell-based; conditions: escalating doses
Description: (§1) This experiment was designed to explore the synergistic interaction of 5HT2A agonist and a TRP agonists on receptors in the brain that are associated with depression and/or inflammation. […] The development of an inflammatory microenvironment is considered important to the initiation and progression of glioblastoma; however, therapeutic approaches to target inflammation have previously been limited. The abnormal function of IL-6 and IL-8 has been predicted to lead to glioblastoma.
(§2) Thus, unlike the experiments on HSIEC cells described above, no inflammatory treatment was applied to the A-172 cells. The A-172 cells were grown to […] confluence on T-25 flasks to allow a 96-hour duration of exposure of the cells to the compounds of interest

COX-2 = COX-2 in A-172 cells; type: cell-based; conditions: 5 μM psilocybin + 25 μM eugenol vs 5 μM psilocybin alone, eugenol alone 25 μM
Description: as §1, §2

[1] = tested on: Human primary small intestinal epithelial cells (HSIEC)
A-172 glioblastoma cells = assay: MTT cell viability assay in A-172 cells

## C=CCc1ccc(O)c(OC)c1 [eugenol]
BDNF
  dose resulting in the greatest increase in BDNF: 100 µM
COX-2
  effect on COX-2: increase
[1]
  effect on cell growth / cellular metabolic activity (MTT, words): slight inhibitory effect on cell growth
[1]; 10 μM, 24 h
  Cellular Metabolic Activity: 0.064
[1]; 10 μM, 48 h
  Cellular Metabolic Activity: 0.168
[1]; 10 μM, 72 h
  Cellular Metabolic Activity: 0.346
[1]; 10 μM, 96 h
  Cellular Metabolic Activity: 0.632
[1]; 10 μM, time 0
  Cellular Metabolic Activity: 0.047
[1]; 50 μM, 24 h
  Cellular Metabolic Activity: 0.079
[1]; 50 μM, 48 h
  Cellular Metabolic Activity: 0.145
[1]; 50 μM, 72 h
  Cellular Metabolic Activity: 0.337
[1]; 50 μM, 96 h
  Cellular Metabolic Activity: 0.647
[1]; 50 μM, time 0
  Cellular Metabolic Activity: 0.038
[1]; 100 μM, 24 h
  Cellular Metabolic Activity: 0.075
[1]; 100 μM, 48 h
  Cellular Metabolic Activity: 0.136
[1]; 100 μM, 72 h
  Cellular Metabolic Activity: 0.346
[1]; 100 μM, 96 h
  Cellular Metabolic Activity: 0.662
[1]; 100 μM, time 0
  Cellular Metabolic Activity: 0.038
[1]; 200 μM, 24 h
  Cellular Metabolic Activity: 0.064
[1]; 200 μM, 48 h
  Cellular Metabolic Activity: 0.111
[1]; 200 μM, 72 h
  Cellular Metabolic Activity: 0.296
[1]; 200 μM, 96 h
  Cellular Metabolic Activity: 0.652
[1]; 200 μM, time 0
  Cellular Metabolic Activity: 0.041
[1]; 400 μM, 24 h
  Cellular Metabolic Activity: 0.059
[1]; 400 μM, 48 h
  Cellular Metabolic Activity: 0.128
[1]; 400 μM, 72 h
  Cellular Metabolic Activity: 0.242
[1]; 400 μM, 96 h
  Cellular Metabolic Activity: 0.549
[1]; 400 μM, time 0
  Cellular Metabolic Activity: 0.042
[1]; 800 μM, 24 h
  Cellular Metabolic Activity: 0.053
[1]; 800 μM, 48 h
  Cellular Metabolic Activity: 0.091
[1]; 800 μM, 96 h
  Cellular Metabolic Activity: 0.268
[1]; 800 μM, time 0
  Cellular Metabolic Activity: 0.042
A-172 glioblastoma cells; 10 μM, 24 h
  Cellular Metabolic Activity: 0.137
A-172 glioblastoma cells; 10 μM, 48 h
  Cellular Metabolic Activity: 0.234
A-172 glioblastoma cells; 10 μM, 72 h
  Cellular Metabolic Activity: 0.329
A-172 glioblastoma cells; 10 μM, 96 h
  Cellular Metabolic Activity: 0.533
A-172 glioblastoma cells; 10 μM, time 0
  Cellular Metabolic Activity: 0.084
A-172 glioblastoma cells; 25 μM, 24 h
  Cellular Metabolic Activity: 0.153
A-172 glioblastoma cells; 25 μM, 48 h
  Cellular Metabolic Activity: 0.266
A-172 glioblastoma cells; 25 μM, 72 h
  Cellular Metabolic Activity: 0.318
A-172 glioblastoma cells; 25 μM, 96 h
  Cellular Metabolic Activity: 0.557
A-172 glioblastoma cells; 25 μM, time 0
  Cellular Metabolic Activity: 0.083
A-172 glioblastoma cells; 50 μM, 24 h
  Cellular Metabolic Activity: 0.146
A-172 glioblastoma cells; 50 μM, 48 h
  Cellular Metabolic Activity: 0.229
A-172 glioblastoma cells; 50 μM, 72 h
  Cellular Metabolic Activity: 0.327
A-172 glioblastoma cells; 50 μM, 96 h
  Cellular Metabolic Activity: 0.542
A-172 glioblastoma cells; 50 μM, time 0
  Cellular Metabolic Activity: 0.086
A-172 glioblastoma cells; 100 μM, 24 h
  Cellular Metabolic Activity: 0.170
A-172 glioblastoma cells; 100 μM, 48 h
  Cellular Metabolic Activity: 0.230
A-172 glioblastoma cells; 100 μM, 72 h
  Cellular Metabolic Activity: 0.322
A-172 glioblastoma cells; 100 μM, 96 h
  Cellular Metabolic Activity: 0.516
A-172 glioblastoma cells; 100 μM, time 0
  Cellular Metabolic Activity: 0.082
A-172 glioblastoma cells; 200 μM, 24 h
  Cellular Metabolic Activity: 0.170
A-172 glioblastoma cells; 200 μM, 48 h
  Cellular Metabolic Activity: 0.224
A-172 glioblastoma cells; 200 μM, 72 h
  Cellular Metabolic Activity: 0.313
A-172 glioblastoma cells; 200 μM, 96 h
  Cellular Metabolic Activity: 0.431
A-172 glioblastoma cells; 200 μM, time 0
  Cellular Metabolic Activity: 0.089
A-172 glioblastoma cells; 400 μM, 24 h
  Cellular Metabolic Activity: 0.173
A-172 glioblastoma cells; 400 μM, 48 h
  Cellular Metabolic Activity: 0.208
A-172 glioblastoma cells; 400 μM, 72 h
  Cellular Metabolic Activity: 0.272
A-172 glioblastoma cells; 400 μM, 96 h
  Cellular Metabolic Activity: 0.422
A-172 glioblastoma cells; 400 μM, time 0
  Cellular Metabolic Activity: 0.088
A-172 glioblastoma cells; A-172, psilocybin 80 μM
  effect on cell growth (MTT, words): slight inhibitory effect
